Assay results: PMC8225045, “Chemical Synthesis and Structure-Activity Relationship Study Yield Desotamide a Analogues with Improved Antibacterial Activity” (Marine Drugs, 2021)
Values after ≈ are worked out from the molar mass of the structure shown. Where two headings read alike, the source gives them in different places. Non-standard residues stand in square brackets, D forms with d. Residues, ends and D or L forms follow the SMILES beside them. aIle = CC[C@@H](C)[C@H](N)C(=O)O

Columns and labels:
Bacillus subtilis BS01 = test: microbe, parasite or virus in culture
Procedure: (§1) All the synthesized cyclopeptides (7–19) and the desotamide A (1) isolated from S. scopuliridis SCSIO ZJ46 were evaluated for antibacterial activities against a series of Gram-positive pathogens including […] Staphylococcus aureus ATCC29213, Bacillus subtilis BS01, Micrococcus luteus ML01, Enterococcus faecalis ATCC29212; 3 drug-resistant poultry pathogens Staphylococcus simulans LJH13, Enterococcus gallinarum LJH11, Staphylococcus haemolyticus LJH9; 4 clinical methicillin-resistant Staphylococcus aureus (MRSA) shhs-E1, MRSA 16339, MRSA 745524, MRSA 16162. Their antibacterial activities against the […] pathogens Escherichia coli ATCC 13,124 and clinical drug-resistant Klebsiella pneumonia 15580 were also assayed.
(§2) Ampicillin, vancomycin and polymyxin were used as control. The maximum test concentrations for all the compounds were 128 μg/mL.

[1] = tested on: Enterococcus faecalis ATCC 29212; test: microbe, parasite or virus in culture
Procedure: as §1, §2

[2] = tested on: Enterococcus gallinarum LJH11; test: microbe, parasite or virus in culture
Procedure: as §1, §2

MRSA 16162 = test: microbe, parasite or virus in culture
Procedure: as §1, §2

MRSA 16339 = test: microbe, parasite or virus in culture
Procedure: as §1, §2

MRSA 745524 = test: microbe, parasite or virus in culture
Procedure: as §1, §2

Micrococcus luteus ML01 = test: microbe, parasite or virus in culture
Procedure: as §1, §2

[3] = tested on: Staphylococcus aureus ATCC 29213; test: microbe, parasite or virus in culture
Procedure: as §1, §2

[4] = tested on: Staphylococcus haemolyticus LJH9; test: microbe, parasite or virus in culture
Procedure: as §1, §2

[5] = tested on: Staphylococcus simulans LJH13; test: microbe, parasite or virus in culture
Procedure: as §1, §2

[6] = tested on: methicillin-resistant Staphylococcus aureus (MRSA) shhsE1; test: microbe, parasite or virus in culture
Procedure: as §1, §2

Gram-positive pathogens = conditions: for Gram positive antibacterial activity for desotamides (in words): Figure 2
Procedure: as §1, §2

[7] = tested on: Klebsiella pneumoniae 15580
Procedure: as §1, §2

[8] = Enterococcus faecalis, ATCC29212
[9] = Enterococcus gallinarum, GALLINARUM
[10] = Staphylococcus aureus, ATCC29213
[11] = Staphylococcus haemolyticus, LJH9
[12] = Enterococcus gallinarum LJH11, drug-resistant poultry pathogen, two-fold serial dilution, Mueller-Hinton broth, 96-well plate, CLSI-based, maximum test concentration 128 μg/mL
[13] = clinical MRSA shhsE1, two-fold serial dilution, Mueller-Hinton broth, 96-well plate, CLSI-based, maximum test concentration 128 μg/mL

| Compound | MIC (Bacillus subtilis BS01; BS01) [µg/mL] | MIC ([1]; ATCC 29212) [µg/mL] | MIC (MRSA 16162; 16162) [µg/mL] | MIC (MRSA 16339; 16339) [µg/mL] | MIC (MRSA 745524; 745524) [µg/mL] | MIC (Micrococcus luteus ML01; ML01) [µg/mL] | MIC ([3]; ATCC 29213) [µg/mL] | MIC [4] [µg/mL] | MIC [5] [µg/mL] | MIC [6, 13] [µg/mL] | MIC [7]; 15580 [µg/mL] | MIC [2] [µg/mL] | MIC ([6]; methicillin-resistant shhsE1) [µg/mL] | Gram positive antibacterial activity for desotamides (in words) (Gram-positive pathogens; summary) | also measured |
| --- | --- | --- | --- | --- | --- | --- | --- | --- | --- | --- | --- | --- | --- | --- | --- |
| CC1(C)S[C@@H]2[C@H](NC(=O)[C@H](N)c3ccccc3)C(=O)N2[C@H]1C(=O)O [Amp, ampicillin, reference compound] | – | – | – | – | – | – | – | – | – | – | – | – | – | – | MIC (Bacillus subtilis BS01; Bacillus subtilis, BS01): < 0.0625 µg/mL; MIC [1, 8]: 4 µg/mL (≈ 11.4 µM); MIC [2, 9]: 2 µg/mL (≈ 5.72 µM); MIC (MRSA 16162; Staphylococcus aureus, MRSA): 32 µg/mL (≈ 91.6 µM); MIC (MRSA 16339; Staphylococcus aureus, MRSA): 64 µg/mL (≈ 183 µM); MIC (MRSA 745524; Staphylococcus aureus, MRSA): 16 µg/mL (≈ 45.8 µM); MIC (Micrococcus luteus ML01; Micrococcus luteus, ML01): 0.25 µg/mL (≈ 0.715 µM); MIC [3, 10]: 1 µg/mL (≈ 2.86 µM); MIC [4, 11]: 16 µg/mL (≈ 45.8 µM); MIC ([5]; Staphylococcus simulans, LJH13): 0.25 µg/mL (≈ 0.715 µM); MIC ([6]; Staphylococcus aureus, MRSA): 64 µg/mL (≈ 183 µM) |
| CC(C)C[C@@H]1NC(=O)[C@H](Cc2c[nH]c3ccccc23)NC(=O)[C@@H](CCCCN)NC(=O)[C@H](CC(N)=O)NC(=O)[C@H](C(C)C)NC(=O)[C@@H](CC(C)C)NC1=O [Compound 9, Wollamide B2] (cyclo([dK]WL[dL]VN)) | 16 (≈ 21.2 µM) | 64 (≈ 84.9 µM) | 32 (≈ 42.4 µM) | 32 (≈ 42.4 µM) | 32 (≈ 42.4 µM) | 16 (≈ 21.2 µM) | 32 (≈ 42.4 µM) | 32 (≈ 42.4 µM) | 16 (≈ 21.2 µM) | 32 (≈ 42.4 µM) | >128 | – | – | – | MIC [2, 12]: 128 µg/mL (≈ 170 µM); fold increase of anti-Gram-positive activity compared to wollamide B (7) (Gram-positive pathogens; Gram-positive bacteria): 2–4 folds; Gram positive antibacterial activity for wollamides (in words) (Gram-positive pathogens; summary, Figure 3): 2–4-Fold more active than 7 |
| CC[C@@H](C)[C@@H]1NC(=O)[C@H](CC(N)=O)NC(=O)[C@@H](CCCNC(=N)N)NC(=O)[C@H](Cc2c[nH]c3ccccc23)NC(=O)[C@H](CC(C)C)NC(=O)[C@@H](CC(C)C)NC1=O [Compound 10, Desotamide A1] (cyclo(LW[dR]N[aIle][dL])) | >128 | >128 | >128 | >128 | >128 | 64 (≈ 80.4 µM) | >128 | >128 | >128 | – | >128 | >128 | >128 | Inactive | – |
| CC[C@@H](C)[C@@H]1NC(=O)[C@H](CC(N)=O)NC(=O)[C@@H](CCCCN)NC(=O)[C@H](Cc2c[nH]c3ccccc23)NC(=O)[C@H](CC(C)C)NC(=O)[C@@H](CC(C)C)NC1=O [Compound 11, Desotamide A2] (cyclo(LW[dK]N[aIle][dL])) | >128 | >128 | >128 | >128 | >128 | >128 | >128 | >128 | >128 | – | >128 | >128 | >128 | Inactive | – |
| CC[C@@H](C)[C@@H]1NC(=O)[C@H](CC(N)=O)NC(=O)[C@@H](Cc2c[nH]cn2)NC(=O)[C@H](Cc2c[nH]c3ccccc23)NC(=O)[C@H](CC(C)C)NC(=O)[C@@H](CC(C)C)NC1=O [Compound 12, Desotamide A3] (cyclo(LW[dH]N[aIle][dL])) | >128 | >128 | >128 | >128 | >128 | >128 | >128 | >128 | >128 | – | >128 | >128 | >128 | Inactive | – |
| CC[C@H](C)[C@@H]1NC(=O)[C@H](CC(N)=O)NC(=O)[C@@H](Cc2c[nH]cn2)NC(=O)[C@H](Cc2c[nH]c3ccccc23)NC(=O)[C@H](CC(C)C)NC(=O)[C@@H](CC(C)C)NC1=O [Compound 14, Desotamide A5] (cyclo(I[dL]LW[dH]N)) | 64 (≈ 82.4 µM) | 64 (≈ 82.4 µM) | 64 (≈ 82.4 µM) | 64 (≈ 82.4 µM) | 64 (≈ 82.4 µM) | 64 (≈ 82.4 µM) | 64 (≈ 82.4 µM) | 64 (≈ 82.4 µM) | 64 (≈ 82.4 µM) | – | >128 | 128 (≈ 165 µM) | 64 (≈ 82.4 µM) | 2-Fold less active than 1 | fold less potent MIC value compared to 1 (Gram-positive pathogens; Gram-positive bacteria, generally): 2 fold |
| CC(C)C[C@@H]1NC(=O)[C@H](CC(N)=O)NC(=O)CNC(=O)[C@H](Cc2c[nH]c3ccccc23)NC(=O)[C@H](CC(C)C)NC(=O)[C@@H](CC(C)C)NC1=O [Compound 16, Desotamide A7] (cyclo(NL[dL]LWG)) | >128 | >128 | >128 | >128 | >128 | >128 | >128 | >128 | >128 | >128 | >128 | >128 | – | Inactive | MIC values against Gram-positive pathogens (summary over the panel) (Gram-positive pathogens; series of Gram-positive pathogens including MRSA, summary of Table 1): > 128 µg/mL |
| CC(C)C[C@@H]1NC(=O)[C@H](Cc2c[nH]c3ccccc23)NC(=O)[C@@H](CCCCN)NC(=O)[C@H](CC(N)=O)NC(=O)[C@H](CC(C)C)NC(=O)[C@@H](CC(C)C)NC1=O [Compound 17, Desotamide A8] (cyclo([dK]WL[dL]LN)) | 32 (≈ 41.7 µM) | 128 (≈ 167 µM) | 64 (≈ 83.3 µM) | 64 (≈ 83.3 µM) | 32 (≈ 41.7 µM) | 16 (≈ 20.8 µM) | 32 (≈ 41.7 µM) | 64 (≈ 83.3 µM) | 32 (≈ 41.7 µM) | 64 (≈ 83.3 µM) | >128 | >128 | – | Slightly less active than 1 | – |
| CN[C@H](CC(C)C)C(=O)N[C@H]1C(=O)N[C@@H](CC(N)=O)C(=O)N[C@H]2C(=O)N[C@H]3C(=O)N[C@H](C(=O)N[C@H](C(=O)O)c4cc(O)cc(O)c4-c4cc3ccc4O)[C@H](O)c3ccc(c(Cl)c3)Oc3cc2cc(c3O[C@@H]2O[C@H](CO)[C@@H](O)[C@H](O)[C@H]2O[C@H]2C[C@](C)(N)[C@H](O)[C@H](C)O2)Oc2ccc(cc2Cl)[C@H]1O [Van, vancomycin, reference compound] | – | – | – | – | – | – | – | – | – | – | – | – | – | – | MIC (Bacillus subtilis BS01; Bacillus subtilis, BS01): 0.125 µg/mL (≈ 0.0863 µM); MIC [1, 8]: 4 µg/mL (≈ 2.76 µM); MIC [2, 9]: 8 µg/mL (≈ 5.52 µM); MIC (MRSA 16162; Staphylococcus aureus, MRSA): 0.5 µg/mL (≈ 0.345 µM); MIC (MRSA 16339; Staphylococcus aureus, MRSA): 0.25 µg/mL (≈ 0.173 µM); MIC (MRSA 745524; Staphylococcus aureus, MRSA): 0.5 µg/mL (≈ 0.345 µM); MIC (Micrococcus luteus ML01; Micrococcus luteus, ML01): 0.25 µg/mL (≈ 0.173 µM); MIC [3, 10]: 0.5 µg/mL (≈ 0.345 µM); MIC [4, 11]: 2 µg/mL (≈ 1.38 µM); MIC ([5]; Staphylococcus simulans, LJH13): 0.25 µg/mL (≈ 0.173 µM); MIC ([6]; Staphylococcus aureus, MRSA): 0.5 µg/mL (≈ 0.345 µM) |
| cyclo(Asn-Ile-D-Leu-Leu-Trp-D-Arg) (head to tail) [Compound 19, Desotamide A0] | – | – | – | – | – | – | – | – | – | 64 | – | – | – | Slightly less active than 1 | MIC (Bacillus subtilis BS01; Bacillus subtilis BS01, two-fold serial dilution, Mueller-Hinton broth, 96-well plate, CLSI-based, maximum test concentration 128 μg/mL): 32 µg/mL; MIC ([1]; Enterococcus faecalis ATCC 29212, two-fold serial dilution, Mueller-Hinton broth, 96-well plate, CLSI-based, maximum test concentration 128 μg/mL): 128 µg/mL; MIC [2, 12]: >128 µg/mL; MIC (MRSA 16162; clinical MRSA 16162, two-fold serial dilution, Mueller-Hinton broth, 96-well plate, CLSI-based, maximum test concentration 128 μg/mL): 64 µg/mL; MIC (MRSA 16339; clinical MRSA 16339, two-fold serial dilution, Mueller-Hinton broth, 96-well plate, CLSI-based, maximum test concentration 128 μg/mL): 128 µg/mL; MIC (MRSA 745524; clinical MRSA 745524, two-fold serial dilution, Mueller-Hinton broth, 96-well plate, CLSI-based, maximum test concentration 128 μg/mL): 64 µg/mL; MIC (Micrococcus luteus ML01; Micrococcus luteus ML01, two-fold serial dilution, Mueller-Hinton broth, 96-well plate, CLSI-based, maximum test concentration 128 μg/mL): 32 µg/mL; MIC ([3]; Staphylococcus aureus ATCC 29213, two-fold serial dilution, Mueller-Hinton broth, 96-well plate, CLSI-based, maximum test concentration 128 μg/mL): 64 µg/mL; MIC ([4]; Staphylococcus haemolyticus LJH9, drug-resistant poultry pathogen, two-fold serial dilution, Mueller-Hinton broth, 96-well plate, CLSI-based, maximum test concentration 128 μg/mL): 64 µg/mL; MIC ([5]; Staphylococcus simulans LJH13, drug-resistant poultry pathogen, two-fold serial dilution, Mueller-Hinton broth, 96-well plate, CLSI-based, maximum test concentration 128 μg/mL): 32 µg/mL; MIC ([7]; clinical drug-resistant Klebsiella pneumoniae 15580, two-fold serial dilution, Mueller-Hinton broth, 96-well plate, CLSI-based, maximum test concentration 128 μg/mL): >128 µg/mL |
